For 20 compounds, MIC99 results are on record in ChEMBL document CHEMBL1142794, “New alpha-methylene-gamma-butyrolactones with antimycobacterial properties” (2005).

Structures are written as SMILES. Converted amounts (≈) assume the structure as drawn.

The subject of the first assay is Mycobacterium tuberculosis variant bovis. The assay is described as follows: In vitro minimum inhibitory concentration dissolved in DMSO against Mycobacterium bovis BCG using BACTEC 460 radiometric system; Range=0.75-1.5 ug/mL. In kind it is functional.
In general, MIC99 refers to an inhibitory concentration at the 99% level, which refers to growth in some studies and to a panel of isolates in others. Lower therefore signals higher susceptibility. Compound `CCCCCCCCCCS(=O)(=O)NC(C)=O` came in with an MIC99 of 1.5 µg/mL (≈ 5.69 µM).

Another assay shares this test system. The assay is described as follows: In vitro minimum inhibitory concentration dissolved in DMSO against Mycobacterium bovis BCG using BACTEC 460 radiometric system. In kind it is functional.
Compound `CCCCCCCCCC[C@@H]1OC(=O)C(=O)C1C(=O)OC` (stereo not given in full) yielded an MIC99 of more than 25 µg/mL.

The compound `C=C1C(=O)O[C@@H](CCCCCCCC)C1C(=O)OC` (stereo not given in full) gave an MIC99 of more than 25 µg/mL.

For the compound `C=CCNC(=O)[C@@H]1C(=C)C(=O)O[C@H]1CCCCCCCC`, the MIC99 is 12.5 µg/mL (≈ 42.6 µM).

As for `C=CCNC(=O)[C@H]1[C@H](CCCCCCCC)OC(=O)[C@@H]1C`, the MIC99 was more than 25 µg/mL.

`C=CCNC(=O)OCCNC(=O)[C@@H]1C(=C)C(=O)O[C@H]1CCCCCCCC` came in with an MIC99 of more than 25 µg/mL.

As for `C=C1C(=O)O[C@@H](CCCCCCCC)[C@@H]1C(=O)NCc1ccccc1`, the MIC99 was 25 µg/mL (≈ 72.8 µM).

As to `C=C1C(=O)O[C@@H](CCCCCCCC)[C@@H]1C(=O)NC/C=C/CC(=O)OC`, the MIC99 came to 25 µg/mL (≈ 68.4 µM).

Take `C=CCNC(=O)[C@@H]1C(=C)C(=O)O[C@H]1CCCC`: the MIC99 came out at 12.5 µg/mL (≈ 52.7 µM).

Take `C=C1C(=O)O[C@@H](CCCCCCCC)[C@@H]1C(=O)NCCO`: the MIC99 is 25 µg/mL (≈ 84.1 µM).

In turn, `C=CCNC(=O)[C@@H]1C(=C)C(=O)O[C@H]1CCCCCCCCCCCC` displayed an MIC99 of 6.25 µg/mL (≈ 17.9 µM).

`CCCC[C@@H]1OC(=O)C(=O)C1C(=O)OC` (stereo not given in full) came in with an MIC99 of more than 25 µg/mL.

`C=CCNC(=O)[C@H]1[C@H](CCCCCCCC)OC(=O)[C@H]1C` gave an MIC99 of more than 25 µg/mL.

`C=CCNC(=O)[C@@H]1C(=C)C(=O)O[C@H]1CCCCCC` showed an MIC99 of 12.5 µg/mL (≈ 47.1 µM).

`C=C1C(=O)O[C@@H](CCCCCCCC)[C@@H]1C(=O)NCC(=O)OC` gave an MIC99 of 25 µg/mL (≈ 76.8 µM).

Regarding `CCCCCCCC[C@@H]1OC(=O)C(=O)C1C(=O)OC` (stereo not given in full), the MIC99 is more than 25 µg/mL.

As to `NNC(=O)c1ccncc1` [ISONIAZID], the MIC99 came to 0.1 µg/mL (≈ 0.729 µM).

Compound `C=C1C(=O)O[C@@H](CCCCCCCC)[C@@H]1C(=O)NCC(=O)O` had an MIC99 of more than 25 µg/mL.

The compound `C=C1C(=O)O[C@@H](CCCCCCCC)[C@@H]1C(=O)NNc1cccc(Cl)c1` registered an MIC99 of more than 25 µg/mL.

`C=C1C(=O)O[C@@H](CCCCCCCC)C1C(=O)O` (stereo not given in full): the MIC99 was more than 25 µg/mL.
